The values below come from patent US20140005165A1, “SUBSTITUTED 3-AZABICYCLO[3.1.0]HEXANE DERIVATIVES USEFUL AS CCR2 ANTAGONISTS” (priority 2011, published 2014).

T1 sequence (P41597 whole entry): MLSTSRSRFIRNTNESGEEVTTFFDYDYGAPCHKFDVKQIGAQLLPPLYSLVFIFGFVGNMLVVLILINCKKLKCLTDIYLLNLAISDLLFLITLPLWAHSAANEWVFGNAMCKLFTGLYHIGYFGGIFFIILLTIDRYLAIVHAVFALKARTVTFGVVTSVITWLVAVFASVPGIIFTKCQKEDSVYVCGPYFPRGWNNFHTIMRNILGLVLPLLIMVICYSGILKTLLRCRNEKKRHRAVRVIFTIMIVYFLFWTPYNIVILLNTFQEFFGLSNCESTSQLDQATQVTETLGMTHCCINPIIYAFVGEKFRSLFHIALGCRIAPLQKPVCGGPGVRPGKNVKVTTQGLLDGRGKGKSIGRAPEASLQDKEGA

The first experiment concerns the target T1, human CCR2 (Homo sapiens, UniProt P41597).
T1 construct: expressed in transfected cells; host or cells: Ba/F3 cells (membrane preparation)
Put plainly: CCR2 Membrane Binding Assay (SPA radio-ligand binding, 125I-rhMCP-1). The following applies: membranes from Ba/F3 cells transfected with human CCR2; 0.03 nM 125I-rhMCP-1; 4 h room temperature. As for the experimental part:
The radio-ligand binding assay was done using scintillation proximity assay (SPA) technology. Briefly, membranes (1 μg per assay point) from Ba/F3 cells transfected with human CCR2, and wheat germ agglutinin-coated SPA beads (80 μg per point; Amersham, Arlington Heights, Ill.), were pre-incubated for 30 min at room temperature in CCR2 buffer (50 mM HEPES (pH=7.4), 10 mM MgCl2, 10 mM NaCl, 1 mM CaCL2, 0.1% BSA, 10 μg/ml Saponin). At this point pre-bound SPA bead, membrane complex was incubated at room temperature for 4 h with varying concentrations of punitive CCR2 antagonists (in 1% DMSO, final) and 0.03 nM ^125I-rhMCP-1 in CCR2Buffer (S.A. 2200 Ci/mmol, PerkinElmer Life and Analytical Science, Boston, Mass.; NEX332). Binding competition was measured using a 1450 Microbeta Trilux counter (Wallac, Gaithersburg, Md.). Binding constants (IC50 and slope) were calculated using GraphPad Prism software (GraphPad Software, Inc., La Jolla Calif.).
For the compound `O=C(CNC(=O)[C@H]1[C@@H]2CN([C@H]3CC[C@@H](c4ccccn4)CC3)C[C@@H]21)Nc1cccc(C(F)(F)F)c1` [Compound 81], the half-inhibitory concentration (IC50) (commonly the concentration that inhibits the measured activity by half) turned out to be 1.8 nM. Compound `O=C(CNC(=O)[C@H]1[C@@H]2CN([C@H]3CC[C@@H](c4cccnc4)CC3)C[C@@H]21)Nc1cccc(C(F)(F)F)c1` [Compound 82] showed an IC50 of 4 nM. With `O=C(CNC(=O)[C@H]1[C@@H]2CN([C@H]3CC[C@@H](c4ccncc4)CC3)C[C@@H]21)Nc1cccc(C(F)(F)F)c1` [Compound 83], the IC50 came out at 11 nM. For `O=C(CNC(=O)[C@H]1[C@@H]2CN([C@H]3CC[C@@H](c4ccccc4)OC3)C[C@@H]21)Nc1cccc(C(F)(F)F)c1` [Compound 89], the IC50 was 3.6 nM. Compound `O=C(CNC(=O)[C@H]1[C@@H]2CN([C@H]3CC[C@@H](c4ncccn4)CC3)C[C@@H]21)Nc1cccc(C(F)(F)F)c1` [Compound 90] had an IC50 of 7.6 nM. `Cn1cc([C@H]2CC[C@@H](N3C[C@@H]4[C@H](C3)[C@H]4C(=O)NCC(=O)Nc3cccc(C(F)(F)F)c3)CC2)cn1` [Compound 94]: the IC50 was 13.6 nM. `O=C(CNC(=O)[C@H]1[C@@H]2CN([C@H]3CC[C@@H](c4ccsc4)CC3)C[C@@H]21)Nc1cccc(C(F)(F)F)c1` [Compound 97] displayed an IC50 of 3.7 nM. The same measure, in the same setting: under `O=C(CNC(=O)[C@H]1[C@@H]2CN([C@H]3CC[C@@H](c4ccc(O)cc4)CC3)C[C@@H]21)Nc1cccc(C(F)(F)F)c1` [Compound 114] stands 3.1 nM. `O=C(CNC(=O)[C@H]1[C@@H]2CN([C@H]3CC[C@@H](c4ccc(F)cc4)CC3)C[C@@H]21)Nc1cccc(C(F)(F)F)c1` [Compound 119] gave an IC50 of 6.1 nM. `O=C(CNC(=O)[C@H]1[C@@H]2CN(C3CCC(O)(c4nccs4)CC3)C[C@@H]21)Nc1cccc(C(F)(F)F)c1` (some centres unmarked) [Compound 120] gave a 50% inhibitory concentration (IC50) of 3.9 nM.

The experiment is the same for the next values; noted with them: membranes from Ba/F3 cells transfected with human CCR2; 0.03 nM 125I-rhMCP-1; class symbols.
`O=C(CNC(=O)[C@H]1[C@@H]2CN(C3CC[C@@H](c4ccccc4)C3)C[C@@H]21)Nc1cccc(C(F)(F)F)c1` (some centres unmarked) [Compound 65] displayed an IC50 of 201 to 700 nM. On the same count and under the same terms, next, `O=C(NCCc1cc(F)cc(C(F)(F)F)c1)[C@H]1[C@@H]2CN([C@H]3CC[C@@H](c4ccccc4)CC3)C[C@@H]21` [Compound 67]: 51 to 200 nM.

The compound `O=C(NC1Cc2ccc(Br)cc2C1)[C@H]1[C@@H]2CN([C@H]3CC[C@@H](c4ccccc4)CC3)C[C@@H]21` (some centres unmarked) [Compound 68] had an IC50 of 51 to 200 nM. The compound `O=C([C@H]1[C@@H]2CN([C@H]3CC[C@@H](c4ccccc4)CC3)C[C@@H]21)N1CCC(c2cccc(C(F)(F)F)c2)C1` (some centres unmarked) [Compound 70] returned an IC50 of less than 50 nM. Compound `O=C([C@H]1[C@@H]2CN([C@H]3CC[C@@H](c4ccccc4)CC3)C[C@@H]21)N1CCC(c2cccc(C(F)(F)F)c2)C1` (some centres unmarked) [Compound 71] had a concentration for half-maximal inhibition (IC50) of less than 50 nM. `O=C([C@H]1[C@@H]2CN([C@H]3CC[C@@H](c4ccccc4)CC3)C[C@@H]21)N1CCC(c2ccc(C(F)(F)F)cc2)C1` (some centres unmarked) [Compound 73]: the IC50 was 51 to 200 nM.

`O=C(NCC1(c2cccc(C(F)(F)F)c2)CC1)[C@H]1[C@@H]2CN([C@H]3CC[C@@H](c4ccccc4)CC3)C[C@@H]21` [Compound 74] had a concentration for half-maximal inhibition (IC50) of 201 to 700 nM. On to `O=C([C@H]1[C@@H]2CN([C@H]3CC[C@@H](c4ccccc4)CC3)C[C@@H]21)N1CC(Oc2ccc(C(F)(F)F)cc2)C1` [Compound 76], for which the “IC50 (nM)” value was “D (compounds with IC50 values between 701 nM and 110 nM are designated as D class compounds)”. Compound `O=C([C@H]1[C@@H]2CN([C@H]3CC[C@@H](c4ccccc4)CC3)C[C@@H]21)N1CC(Oc2ccc(Cl)c(Cl)c2)C1` [Compound 77] displayed a half-maximal inhibitory concentration (IC50) of 51 to 200 nM.

Regarding `O=C(CNC(=O)[C@H]1[C@@H]2CN(C3CC3)C[C@@H]21)Nc1cccc(C(F)(F)F)c1` [Compound 78], the half-maximal inhibitory concentration (IC50) is 201 to 700 nM. For `O=C(CNC(=O)[C@H]1[C@@H]2CN([C@H]3CC[C@H](c4ccccc4)CC3)C[C@@H]21)Nc1cccc(C(F)(F)F)c1` [Compound 79], the “IC50 (nM)” value was “D (compounds with IC50 values between 701 nM and 110 nM are designated as D class compounds)”.

`O=C(CNC(=O)[C@H]1[C@@H]2CN(C3CCCC(c4ccccc4)C3)C[C@@H]21)Nc1cccc(C(F)(F)F)c1` (some centres unmarked) [Compound 80]: the “IC50 (nM)” value is “D (compounds with IC50 values between 701 nM and 110 nM are designated as D class compounds)”. As for `O=C(CNC(=O)[C@H]1[C@@H]2CN([C@H]3CC[C@H](c4ccccn4)CC3)C[C@@H]21)Nc1cccc(C(F)(F)F)c1` [Compound 84], the half-maximal inhibitory concentration (IC50) is 201 to 700 nM.

Regarding `O=C(CNC(=O)[C@H]1[C@@H]2CN([C@H]3CC[C@H](c4ccncc4)CC3)C[C@@H]21)Nc1cccc(C(F)(F)F)c1` [Compound 85], the half-inhibitory concentration (IC50) was 201 to 700 nM.

`O=C(CNC(=O)[C@H]1[C@@H]2CN([C@H]3CC[C@@H](c4cncnc4)CC3)C[C@@H]21)Nc1cccc(C(F)(F)F)c1` [Compound 91] displayed a half-maximal inhibitory concentration (IC50) of less than 50 nM. On the same count and under the same terms, under `CC(C)N1C[C@@H]2[C@H](C1)[C@H]2C(=O)NCC(=O)Nc1cccc(C(F)(F)F)c1` [Compound 93] stands 51 to 200 nM; under `Cn1ccnc1C1CCC(N2C[C@@H]3[C@H](C2)[C@H]3C(=O)NCC(=O)Nc2cccc(C(F)(F)F)c2)CC1` (some centres unmarked) [Compound 95], 51 to 200 nM. For the compound `Cn1cc([C@H]2CC[C@H](N3C[C@@H]4[C@H](C3)[C@H]4C(=O)NCC(=O)Nc3cccc(C(F)(F)F)c3)CC2)cn1` [Compound 96], the “IC50 (nM)” value was “D (compounds with IC50 values between 701 nM and 110 nM are designated as D class compounds)”. `O=C(CNC(=O)[C@H]1[C@@H]2CN([C@H]3CC[C@@H](c4cccs4)CC3)C[C@@H]21)Nc1cccc(C(F)(F)F)c1` [Compound 98] returned an IC50 of less than 50 nM. For the compound `O=C(CNC(=O)[C@H]1[C@@H]2CN([C@H]3CC[C@H](c4ccsc4)CC3)C[C@@H]21)Nc1cccc(C(F)(F)F)c1` [Compound 99], the half-inhibitory concentration (IC50) fell in the range of 51 to 200 nM. The same measure, in the same setting: next, `O=C(CNC(=O)[C@H]1[C@@H]2CN([C@H]3CC[C@H](c4cccs4)CC3)C[C@@H]21)Nc1cccc(C(F)(F)F)c1` [Compound 100]: 201 to 700 nM. Turning to `O=C([C@H]1[C@@H]2CN([C@H]3CC[C@@H](c4ccccc4)CC3)C[C@@H]21)N1CCC(c2cccc(C(F)(F)F)c2)CC1` [Compound 106], the “IC50 (nM)” value was “D (compounds with IC50 values between 701 nM and 110 nM are designated as D class compounds)”. Regarding `O=C([C@H]1[C@@H]2CN([C@H]3CC[C@@H](c4ccccc4)CC3)C[C@@H]21)N1CCN(c2cccc(C(F)(F)F)c2)CC1` [Compound 108], the IC50 lay within 201 to 700 nM. For the compound `O=C(CNC(=O)[C@H]1[C@@H]2CN(C3CCC3)C[C@@H]21)Nc1cccc(C(F)(F)F)c1` [Compound 110], the IC50 lay within 201 to 700 nM. Same read-out and setting: under `O=C([C@H]1[C@@H]2CN([C@H]3CC[C@@H](c4ccccc4)CC3)C[C@@H]21)N1CC[C@H](Nc2nccc(C(F)(F)F)n2)C1` [Compound 111] stands 51 to 200 nM; under `O=C(N[C@@H]1CCN(c2nccc(C(F)(F)F)n2)C1)[C@H]1[C@@H]2CN([C@H]3CC[C@@H](c4ccccc4)CC3)C[C@@H]21` [Compound 112], 201 to 700 nM. Same read-out and setting: under `O=C([C@H]1[C@@H]2CN([C@H]3CC[C@@H](c4ccccc4)CC3)C[C@@H]21)N1CCC(Nc2ncc(C(F)(F)F)cn2)C1` (some centres unmarked) [Compound 113] stands 201 to 700 nM. Regarding `O=C(CNC(=O)[C@H]1[C@@H]2CN([C@H]3CC[C@H](c4ccc(O)cc4)CC3)C[C@@H]21)Nc1cccc(C(F)(F)F)c1` [Compound 115], the IC50 was less than 50 nM. Consider `O=C(CNC(=O)[C@H]1[C@@H]2CN(C3CC(COCc4ccccc4)C3)C[C@@H]21)Nc1cccc(C(F)(F)F)c1` (some centres unmarked) [Compound 116], for which the IC50 was in the range of 201 to 700 nM. `O=C(CNC(=O)[C@H]1[C@@H]2CN([C@H]3CC[C@@H](c4ccc(=O)[nH]c4)CC3)C[C@@H]21)Nc1cccc(C(F)(F)F)c1` [Compound 117] gave a half-maximal inhibitory concentration (IC50) of less than 50 nM.

Consider `O=C(CNC(=O)[C@H]1[C@@H]2CN([C@H]3CC[C@@H](c4cnc(O)nc4)CC3)C[C@@H]21)Nc1cccc(C(F)(F)F)c1` [Compound 118], for which the IC50 lay in the range of 201 to 700 nM. As for `O=C(CNC(=O)[C@H]1[C@@H]2CN(C3CCC(O)(c4cncs4)CC3)C[C@@H]21)Nc1cccc(C(F)(F)F)c1` (some centres unmarked) [Compound 121], the IC50 was less than 50 nM. Compound `O=C(CNC(=O)[C@H]1[C@@H]2CN(C3CCC(O)(c4nccs4)CC3)C[C@@H]21)Nc1cccc(C(F)(F)F)c1` (some centres unmarked) [Compound 122] showed an IC50 of 51 to 200 nM. `O=C(CNC(=O)[C@H]1[C@@H]2CN(C3CCC(O)(c4cncs4)CC3)C[C@@H]21)Nc1cccc(C(F)(F)F)c1` (some centres unmarked) [Compound 123] gave a concentration for half-maximal inhibition (IC50) of 201 to 700 nM.

`CC(C)(C)OC(=O)[C@H]1CC[C@@H](N2C[C@@H]3[C@H](C2)[C@H]3C(=O)NCC(=O)Nc2cccc(C(F)(F)F)c2)CC1` [Compound 124] yielded an IC50 of 201 to 700 nM. The same measure, in the same setting: next, `Cc1[nH]c2c(C(F)(F)F)cccc2c1CCNC(=O)[C@H]1[C@@H]2CN([C@H]3CC[C@@H](c4ccccc4)CC3)C[C@@H]21` [Compound 125]: 201 to 700 nM; `N#Cc1ccc([C@H]2CC[C@@H](N3C[C@@H]4[C@H](C3)[C@H]4C(=O)NCC(=O)Nc3cccc(C(F)(F)F)c3)CC2)cc1` [Compound 126]: less than 50 nM.
